Measurements as given in ChEMBL document CHEMBL1201862, “PubChem BioAssay data set” (2004).
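Cells were grown in 96-well plates and exposed to each compound for 48 hours at five concentrations; endpoints were interpolated linearly between bracketing concentrations, or set to the highest concentration if not reached. GI50: concentration for 50% inhibition of growth.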 Active and inactive are the calls of the source. Rule as the data show it: active = GI50 up to about 1.1 µM and inactive = higher.

Experiments:
Test in all cases: inhibition of tumour cell growth, NCI panel, 48 h
EKVX = system: EKVX
SF-268 = system: SF-268
SR = system: SR
K562 = system: K562
LOX IMVI = system: LOX IMVI
NCI-H460 = system: NCI-H460
SW-620 = system: SW-620
HCC 2998 = system: HCC 2998
KM12 = system: KM12
SF-539 = system: SF-539
MOLT-4 = system: MOLT-4
OVCAR-3 = system: OVCAR-3
CAKI-1 = system: CAKI-1
HCT-15 = system: HCT-15
NCI-H23 = system: NCI-H23
MDA-N = system: MDA-N
DU-145 = system: DU-145
COLO 205 = system: COLO 205
HOP-92 = system: HOP-92
BT-549 = system: BT-549

Structure (SMILES) | GI50 (EKVX) | GI50 (SF-268) | GI50 (SR) | GI50 (K562) | GI50 (LOX IMVI) | GI50 (NCI-H460) | GI50 (SW-620) | GI50 (HCC 2998) | GI50 (KM12) | GI50 (SF-539) | GI50 (MOLT-4) | GI50 (OVCAR-3) | GI50 (CAKI-1) | GI50 (HCT-15) | GI50 (NCI-H23) | GI50 (MDA-N) | GI50 (DU-145) | GI50 (COLO 205) | GI50 (HOP-92) | GI50 (BT-549)
CCCCCCCCCCCCOCC1(COCCCCCCCCCCCC)COC(c2ccc(N)cc2)OC1 | > 100 µM (inactive) | > 100 µM (inactive) | > 100 µM (inactive) | > 100 µM (inactive) | > 100 µM (inactive) | > 10 µM (inactive) | > 100 µM (inactive) | > 100 µM (inactive) | > 100 µM (inactive) | > 100 µM (inactive) | > 100 µM (inactive) | > 100 µM (inactive) | > 100 µM (inactive) | > 100 µM | > 100 µM (inactive) | > 100 µM (inactive) | > 100 µM (inactive) |  |  | 
COc1cc([C@H]2c3cc4c(cc3[C@H](NCc3ccc([N+](=O)[O-])cc3)C3COC(=O)[C@H]32)OCO4)cc(OC)c1O (some centres not stated) | 3.18 µM (inactive) | 1.47 µM (inactive) | 0.0333 µM (active) | 3.18 µM (inactive) | 0.92 µM (active) | < 0.0282 µM (active) | 1.03 µM (active) | 1.23 µM (inactive) | 2.44 µM (inactive) | 0.745 µM (active) | 0.106 µM (active) | 3.08 µM (inactive) | 0.424 µM (active) | 1.61 µM | 0.398 µM (active) |  |  | 2.52 µM (inactive) | 2.81 µM (inactive) | 
Cc1ccc(NC(=O)CC2C(=O)Nc3ccccc3[S+]2[O-])c(C)c1 (configuration not stated) | > 61.7 µM (inactive) | 24.5 µM (inactive) | 2.9 µM (inactive) | 4.03 µM (inactive) | 16.4 µM (inactive) | 13 µM (inactive) | 5.81 µM (inactive) | 20 µM (inactive) | 4.6 µM (inactive) | 12.9 µM (inactive) | 6.28 µM (inactive) | 9.51 µM (inactive) | 11 µM (inactive) | 4.94 µM | 14.9 µM (inactive) |  |  | 7.52 µM (inactive) | 13.9 µM (inactive) | 
O=C(NCCC1CN(S(=O)(=O)C(F)(F)F)c2ccccc21)OCc1ccccc1 (configuration not stated) | > 100 µM (inactive) | > 100 µM (inactive) | > 100 µM (inactive) | 66.1 µM (inactive) |  | > 100 µM (inactive) | > 100 µM (inactive) | > 100 µM (inactive) | 83.4 µM (inactive) |  | 59.2 µM (inactive) | > 100 µM (inactive) | > 100 µM (inactive) | > 100 µM | > 100 µM (inactive) |  | > 100 µM (inactive) | > 100 µM (inactive) | 77.4 µM (inactive) | > 100 µM (inactive)
C/C(CC(=O)Nc1ccc(Cl)c(Cl)c1)=N/NC(=O)C[N+](C)(C)C | > 100 µM (inactive) | > 100 µM (inactive) | 22.5 µM (inactive) | 46.1 µM (inactive) | 18.1 µM (inactive) | 65.2 µM (inactive) |  | > 100 µM (inactive) | > 100 µM (inactive) | > 100 µM (inactive) | > 100 µM (inactive) | > 100 µM (inactive) | > 100 µM (inactive) | > 100 µM | > 100 µM (inactive) |  |  | 35.2 µM (inactive) | > 100 µM (inactive) | 
COc1cc(C2c3cc4c(cc3[C@@H](OCCN)[C@H]3COC(=O)C23)OCO4)cc(OC)c1O (some centres not stated) | 0.413 µM (active) | 0.159 µM (active) | < 0.0191 µM (active) | 0.181 µM (active) | 0.0434 µM (active) | < 0.01 µM (active) | 0.179 µM (active) | 0.671 µM (active) | 0.491 µM (active) | 0.105 µM (active) | < 0.01 µM (active) | 1.27 µM (inactive) | 0.135 µM (active) | 2.87 µM | 0.136 µM (active) |  |  | 1.7 µM (inactive) | 0.082 µM (active) | 
CC1C2Cc3ccc(O)cc3C1(C)CCN2C (configuration not stated) | > 100 µM (inactive) | > 100 µM (inactive) | > 100 µM (inactive) | > 100 µM (inactive) | > 100 µM (inactive) | > 100 µM (inactive) | > 100 µM (inactive) | > 100 µM (inactive) | > 100 µM (inactive) | > 100 µM (inactive) | > 100 µM (inactive) | > 100 µM (inactive) | > 100 µM (inactive) | > 100 µM | > 100 µM (inactive) | > 100 µM (inactive) | > 100 µM (inactive) | > 100 µM (inactive) |  | 
CC1=C2C(=CC(C)(C)[C@@H]2O)C(=O)[C@](C)(O)C12CC2 [ILLUDIN M] | 0.0773 µM (active) | 0.0162 µM (active) | 0.01 µM (active) | 0.0181 µM (active) | 0.0172 µM (active) | 0.01 µM (active) | 0.013 µM (active) | < 0.0117 µM (active) | 0.0284 µM (active) | 0.0184 µM (active) | 0.01 µM (active) | < 0.0143 µM (active) | 0.0209 µM (active) | 0.0129 µM | < 0.0126 µM (active) | 0.0171 µM (active) |  | 0.0243 µM (active) | 0.0193 µM (active) | 
